# According to patent publication US20230091047A1 (priority 2019, published 2023):
# Where two headings read alike, the source gives them in different places.
# Key:
# [1] = tested on: HBV (HepG2.117 cell line, inducibly HBV producing); assay: Anti-HBV activity: intracellular HBV DNA by real-time PCR in HepG2.117 cells after 3 days of treatment; type: cell-based, hepatitis B virus
# Procedure, shortened: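 Readout is intracellular HBV DNA, measured by real-time PCR with HBV-specific primers and probe after 3 days of exposure to serial compound dilutions. Cells are the stable HepG2.117 line, where HBV replication is induced in the absence of doxycycline.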
# in vitro = type: cell-based; conditions: human, HepG2 or HepG2.117 cells, mean value
# Procedure, shortened: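 Luminescent ATP quantitation served as the viability endpoint following a 3- or 4-day incubation with test compounds.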
# [2] = Hepatitis B virus, HepG2.117, 72 h, HepG2.117 cells, 3 days of treatment, intracellular HBV DNA by real-time PCR; mean value; read-out: EC50 (μM, mean value)
# [3] = 3-days incubation (unmarked values), ATPlite
# [4] = Hepatitis B virus, HepG2.117, 72 h, HepG2.117 cells, intracellular HBV DNA by real-time PCR, 3 days of treatment, mean value; read-out: EC50 (μM, mean value)
# [5] = ATPlite, 3-days incubation (not marked with *)
SMILES,"EC50 [1, 2] [µM]",CC50 at 3 days (in vitro; [3]) [µM],"EC50 [1, 4] [µM]",CC50 at 3 days (in vitro; [5]) [µM],"CC50 at 3 days (in vitro; 3-days incubation (unmarked values), ATPlite viability) [µM]"
"CNC(=O)c1ccc(-n2c(N[C@@H](C)CO)nc3c(c2=O)C[C@@H](C)N(C(=O)c2ccc(Cl)c(Cl)c2)C3)cc1 [Compound C272, 4-[(6R)-7-(3,4-dichlorobenzoyl)-2-{[(2S)-1-hydroxypropan-2-yl]amino}-6-methyl-4-oxo-5,6,7,8-tetrahydropyrido[3,4-d]pyrimidin-3(4H)-yl]-N-methylbenzamide]",2.39,> 50,–,–,–
"CNC(=O)c1ccc(-n2c(N[C@@H](C)c3ccncc3)nc3c(c2=O)C[C@@H](C)N(C(=O)c2ccc(Cl)c(Cl)c2)C3)cc1 (single isomer, unassigned) [Compound C375b]",0.62,> 50,–,–,–
"COc1ccccc1-n1c(N[C@@H](C)C(F)(F)F)nc2c(c1=O)CCN(C(=O)c1ccc(Cl)c(Cl)c1)C2 [Compound C86, 7-(3,4-dichlorobenzoyl)-3-(2-methoxyphenyl)-2-{[(2S)-1,1,1-trifluoropropan-2-yl]amino}-5,6,7,8-tetrahydropyrido[3,4-d]pyrimidin-4(3H)-one]",1.44,25.2,–,–,–
"COc1ccccc1-n1c(NCc2ccc3c(c2)OCO3)nc2c(c1=O)CCN(C(=O)c1ccc(Cl)c(Cl)c1)C2 [Compound C26, 2-{[(2H-1,3-benzodioxol-5-yl)methyl]amino}-7-(3,4-dichlorobenzoyl)-3-(2-methoxyphenyl)-5,6,7,8-tetrahydropyrido[3,4-d]pyrimidin-4(3H)-one]",1.72,> 50,–,–,–
"CC(C)Nc1nc2c(c(=O)n1-c1ccc(-c3ccco3)cc1)CCN(C(=O)c1ccc(Cl)c(Cl)c1)C2 [Compound C175, 7-(3,4-dichlorobenzoyl)-3-[4-(furan-2-yl)phenyl]-2-[(propan-2-yl)amino]-5,6,7,8-tetrahydropyrido[3,4-d]pyrimidin-4(3H)-one]",1.25,17,–,–,–
"COc1ccc(CNc2nc3c(c(=O)n2-c2ccc(-c4ncco4)cc2)CCN(C(=O)c2ccc(Cl)c(Cl)c2)C3)cc1 [Compound C160, 7-(3,4-dichlorobenzoyl)-2-{[(4-methoxyphenyl)methyl]amino}-3-[4-(1,3-oxazol-2-yl)phenyl]-5,6,7,8-tetrahydropyrido[3,4-d]pyrimidin-4(3H)-one]",0.54,> 50,–,–,–
"CNC(=O)c1ccc(-n2c(NC(C)C)nc3c(c2=O)C[C@@H](C)N(C(=O)c2ccc(Cl)c(Cl)c2)C3)c(C)c1 [Compound C300a, 4-[(6R)-7-(3,4-dichlorobenzoyl)-6-methyl-4-oxo-2-[(propan-2-yl)amino]-5,6,7,8-tetrahydropyrido[3,4-d]pyrimidin-3(4H)-yl]-N,3-dimethylbenzamide]",0.06,> 50,–,–,–
"CC[C@@H]1Cc2c(nc(NC(C)C)n(-c3ccc(S(C)(=O)=O)cc3)c2=O)CN1C(=O)c1ccc(Cl)c(Cl)c1 (single isomer, unassigned) [Compound C158A, (6*R)-7-(3,4-dichlorobenzoyl)-6-ethyl-3-[4-(methanesulfonyl)phenyl]-2-[(propan-2-yl)amino]-5,6,7,8-tetrahydropyrido[3,4-d]pyrimidin-4(3H)-one]",0.91,> 50,–,–,–
"CC(C)Nc1nc2c(c(=O)n1-c1ccc(-n3cccn3)cc1)CCN(C(=O)c1ccc(Cl)c(Cl)c1)C2 [Compound C144, 7-(3,4-dichlorobenzoyl)-2-[(propan-2-yl)amino]-3-[4-(1H-pyrazol-1-yl)phenyl]-5,6,7,8-tetrahydropyrido[3,4-d]pyrimidin-4(3H)-one]",0.6,> 50,–,–,–
CNC(=O)c1ccc(-n2c(NC(C)C)nc3c(c2=O)C[C@@H](C)N(C(=O)c2ccc(Cl)c(C(F)(F)F)c2)C3)c(OC)c1 [Compound C643],–,–,0.05,> 50,–
CNC(=O)c1ccc(-n2c(NC(C)C)nc3c(c2=O)C[C@@H](C)N(C(=O)c2ccc(Br)cc2OC(F)F)C3)cc1 [Compound C522],–,–,0.77,> 50,–
"CC(C)Nc1nc2c(c(=O)n1-c1ccc(S(C)(=O)=O)cc1)CCN(C(=O)c1ccc3ncoc3c1)C2 [Compound C151, 7-(1,3-benzoxazole-6-carbonyl)-3-[4-(methanesulfonyl)phenyl]-2-[(propan-2-yl)amino]-5,6,7,8-tetrahydropyrido[3,4-d]pyrimidin-4(3H)-one]",10.7,> 50,–,–,–
"CC(C)Nc1nc2c(c(=O)n1-c1ccc(S(C)(=O)=O)cc1)C[C@@H](c1ccc(F)cc1)N(C(=O)c1ccc(Cl)c(Cl)c1)C2 (single isomer, unassigned) [Compound C110A, (6*S)-7-(3,4-dichlorobenzoyl)-6-(4-fluorophenyl)-3-[4-(methanesulfonyl)phenyl]-2-[(propan-2-yl)amino]-5,6,7,8-tetrahydropyrido[3,4-d]pyrimidin-4(3H)-one]",> 50,> 50,–,–,–
"CNC(=O)c1ccc(-n2c(NCc3ccc(OC)cc3)nc3c(c2=O)CCN(C(=O)c2ccc(Cl)c(Cl)c2)C3)cc1 [Compound C129, 4-[7-(3,4-dichlorobenzoyl)-2-{[(4-methoxyphenyl)methyl]amino}-4-oxo-5,6,7,8-tetrahydropyrido[3,4-d]pyrimidin-3(4H)-yl]-N-methylbenzamide]",0.44,44.4,–,–,–
CNC(=O)c1ccc(-n2c(N[C@@H](C)c3ccc(C(F)F)cc3)nc3c(c2=O)C[C@@H](C)N(C(=O)c2ccc(Cl)c(Cl)c2)C3)cc1 [Compound C609],–,–,0.08,18.7,–
"CNC(=O)c1ccc(-n2c(N[C@@H](C)C3CC3)nc3c(c2=O)C[C@@H](C)N(C(=O)c2ccc(Cl)c(C(F)(F)F)c2)C3)c(Cl)c1 (single isomer, unassigned) [Compound C676a]",–,–,0.03,> 50,–
CNC(=O)c1cc(-n2c(O)nc3c(c2=O)C[C@@H](C)N(C(=O)c2ccc(Cl)c(C(F)(F)F)c2)C3)n(C)n1 [Compound C653],–,–,> 2.5,> 50,–
CNC(=O)c1cnc(-n2c(NC(C)C)nc3c(c2=O)C[C@@H](C)N(C(=O)c2ccc(Cl)c(C(F)(F)F)c2)C3)cn1 [Compound C695],0.04,–,–,–,> 50
"CNC(=O)c1cc(-n2c(NC(C)C)nc3c(c2=O)C[C@@H](C)N(C(=O)c2ccc(Cl)c(Cl)c2)C3)n(C)n1 [Compound C354, 5-[(6R)-7-(3,4-dichlorobenzoyl)-6-methyl-4-oxo-2-[(propan-2-yl)amino]-5,6,7,8-tetrahydropyrido[3,4-d]pyrimidin-3(4H)-yl]-N,1-dimethyl-1H-pyrazole-3-carboxamide]",0.16,> 50,–,–,–
"CNc1noc2cc(-n3c(NC(C)C)nc4c(c3=O)C[C@@H](C)N(C(=O)c3ccc(Cl)c(Cl)c3)C4)ccc12 [Compound C305, (6R)-7-(3,4-dichlorobenzoyl)-6-methyl-3-[3-(methylamino)-1,2-benzoxazol-6-yl]-2-[(propan-2-yl)amino]-5,6,7,8-tetrahydropyrido[3,4-d]pyrimidin-4(3H)-one]",0.07,> 50,–,–,–
CNC(=O)c1ccc(-n2c(NC(C)C)nc3c(c2=O)C[C@@H](C)N(C(=O)c2ccc(C)c(F)c2)C3)cc1 [Compound C515],–,–,1.14,> 50,–
CNC(=O)c1ccc(-n2c(N[C@@H](C)c3ccc(C(F)(F)F)cc3)nc3c(c2=O)C[C@@H](C)N(C(=O)c2ccc(Cl)c(Cl)c2)C3)nc1 [Compound C655],–,–,0.08,9.1,–
